Experiments:
[1] = system: hemoxygenase 1 (HO-1); test: Western blot of hemoxygenase 1 in liver extracts of DDC intoxicated mice; format: in vivo, mouse; details: DDC 3 days, daily i.p. MitoQ in PBS/1% DMSO (112 nmol/kg), versus DDC intoxicated mice
Method: To evaluate hemoxygenase 1 (HO-1) protein expression know to be induced by oxidative stress (Suematsu M. and Ishimura Y., 2000, Hepatology, 31(1): 3-6) standard western blot analysis is performed using protein extracts derived from DDC intoxicated mice treated simultaneously for 3 days with MitoQ (diluted in 1% DMSO in PBS) or just vehicle itself (see protocols in Example 3).
Liver tissues are resuspended in ice-cold RIPA-buffer (50 mM Tris-HCl pH 7.4, 250 mM NaCl, 0.1% SDS, 1% deoxycholate, 1% NP-40) supplemented with 2 μg/ml leupeptin, 2 μg/ml pepstatin, 2 μg/ml aprotinin, 1 mM phenylmethylsulfonylfluoride (PMSF), and 2 mM dithiothreitol followed by homogenization through sonication (2 bursts of 5 seconds) on ice. After incubation for 20 minutes on ice, the lysates are cleared by two centrifugational steps in a microcentrifuge at 13 000 rpm for 15 minutes at 4° C. and the supernatants are collected. Protein concentrations are determined by the Bradford assay (Biorad) using bovine serum albumin as a standard. […] The intensities of the bands can be analysed densitometrically using ChemiImager 5500 software (Alpha Innotech) and each signal normalised to the intensity of the corresponding HO-2 (showing 7 fold reduction of HO-1 upon MitoQ treatment when compared to DDC intoxicated group of animals), or alternatively to β-actin.

[2] = system: human cell lines intoxicated with DDC or BSO; test: ROS formation in cell lines intoxicated with DDC or BSO; format: cell-based; details: simultaneous treatment at concentrations corresponding to EC50
Description: Another simple set of experiments employing hepatoma cell lines (e.g. HepG2 or Hep3B), the SNU-398 hepatocellular carcinoma-derived cell line (ATCC No. CRL-2233, LGC Promochem, Germany), the HUH-7 human carcinoma-derived cell line (Japanese collection of Research Biosources JCRB 0403) or the Tib-73 mouse embryonic liver cell line (ATCC TIB 73=BNL CL2 derived from BAL/c mouse, MD, USA) allows measurement of ROS production in these cells upon DDC intoxication.
To determine ROS production in for example hepatoma cell lines a standard experimental protocol according to Example 8 is applied. Tested hepatoma cells are grown in 96-well plates in culture medium (DMEM supplemented with 10% FCS, Gibco) to 80% confluency, subsequently washed with HBSS and incubated in the dark with DHE (10-50 μM) for 10 minutes at 37° C. Cells are then washed twice with Hank's balanced salt solution (HBSS, Gibco) to remove excess dye. Fluorescence is monitored in a fluorescence microscope (Olympus, Hamburg, Germany).
Alternatively, the generation of ROS is measured by using the fluoroprobe 5-(and-6)-chloromethyl-2′,7′-dichlorodihydrofluorescein diacetate acetyl ester (CM-H2DCFDA, Molecular Probes, Goettingen, Germany) which is converted to fluorescent dichlorofluorescien (DCF; Djordjevic T. et al., 2004, Antioxidants & Redox Signaling, 6: 713-720). To determine DCF fluorescence in a microplate reader (Tecan, Crailsheim, Germany), cells (e.g. HepG2, Hep3B or SNU-398) are grown in 96-well plates to 80% confluency. […] After several washes with HBSS to remove excess dye, fluorescence is monitored by using 480 nm excitation and 540 nm emission wavelength. DCF fluorescence is standardized to the number of viable cells using the Alamar Blue test according to the manufacturer's instructions (Biosource, Nivelles, Belgium). […] The absorbance is then measured at the wavelength of 580 μm.

Substance: MitoQ
- reduction of HO-1 protein expression normalised to HO-2 [1]: 7 fold
- ROS formation [2]: significant reduction in ROS formation

Source: patent US20070225255A1, “Use of Mitochondrially Targeted Antioxidant in the Treatment of Liver Diseases and Epithelial Cancers” (priority 2004, published 2007)
